Measurements from publication PMC4032193 (Journal of Medicinal Chemistry, 2014).
Like-named read-outs stand apart in the source and are kept apart here.

Tests used:
[1] = system: P. falciparum African D6 clone; test: microbe, parasite or virus in culture; format: cell-based; details: Plasmodium falciparum, D6, read-out: D6 IC50
[2] = system: P. falciparum multidrug resistant TM91C235 strain (Thailand); test: microbe, parasite or virus in culture; format: cell-based; details: Plasmodium falciparum, read-out: TM91C235 IC50
[3] = system: P. falciparum Indochina W2 clone; test: microbe, parasite or virus in culture; format: cell-based; details: Plasmodium falciparum, W2, read-out: W2 IC50
[4] = system: HepG2 (hepatocellular carcinoma) cell line; details: human
[5] = in vitro; details: mouse, microsomes
[6] = human
[7] = mouse
[8] = system: P. berghei; details: mouse, in vivo
[9] = molecular target: BoNT/A LC (Clostridium botulinum, UniProt P0DPI0); test: biochemical
Sequence of BoNT/A LC (P0DPI0 2-448 limits assumed): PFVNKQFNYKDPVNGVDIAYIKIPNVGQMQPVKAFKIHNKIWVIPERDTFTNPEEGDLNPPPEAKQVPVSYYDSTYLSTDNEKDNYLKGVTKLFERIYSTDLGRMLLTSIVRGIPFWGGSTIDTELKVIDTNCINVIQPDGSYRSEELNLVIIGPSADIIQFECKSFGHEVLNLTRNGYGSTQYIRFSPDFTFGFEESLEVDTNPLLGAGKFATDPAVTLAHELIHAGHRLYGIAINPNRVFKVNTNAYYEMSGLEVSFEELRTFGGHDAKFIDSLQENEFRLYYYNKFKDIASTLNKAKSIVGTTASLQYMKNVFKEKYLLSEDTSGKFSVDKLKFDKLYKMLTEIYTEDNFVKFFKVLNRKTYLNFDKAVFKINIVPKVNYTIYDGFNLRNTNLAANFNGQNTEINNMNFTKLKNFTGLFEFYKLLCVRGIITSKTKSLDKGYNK

Structure (SMILES) | SI HepG2/D6 [4] | SI HepG2/TM91C235 [4] | SI HepG2/W2 [4] | also measured
CCN(CC)CCCC(C)Nc1ccnc2cc(Cl)ccc12 (stereo not drawn) [Compound 9, chloroquine] | – | – | – | IC50 [1]: 12.3 nM
CC(=O)O[C@@H]1CC[C@@]2(C)[C@@H](C1)C[C@@H](OC(C)=O)[C@@H]1[C@@H]2C[C@H](OC(C)=O)[C@]2(C)[C@@H]([C@H](C)CCCNCCNc3ccnc4cc(Cl)ccc34)CC[C@@H]12 [Compound 12, N-(3α,7α,12α-Triacetoxy-5β-cholan-24-yl)-N′-(7′-chloroquinolin-4′-yl)ethane-1,2-diamine] | – | – | – | IC50 [2]: 27.7 nM; IC50 [1]: 16.9 nM; IC50 [3]: 11.4 nM
CC(=O)O[C@H]1C[C@H]2[C@@H]([C@H](OC(C)=O)C[C@@H]3C[C@H](O)CC[C@@]32C)[C@@H]2CC[C@H]([C@H](C)CCCNCCCNc3ccnc4cc(Cl)ccc34)[C@@]12C [Compound 17] | 84/115/90 | 84/115/90 | 84/115/90 | half-life [5]: > 60 min
CC(=O)O[C@H]1C[C@H]2[C@@H]([C@H](OC(C)=O)C[C@@H]3C[C@H](NS(C)(=O)=O)CC[C@@]32C)[C@@H]2CC[C@H]([C@H](C)CCCN(C)CCCNc3ccnc4cc(Cl)ccc34)[C@@]12C [Compound 43] | 93/89/139 | 93/89/139 | 93/89/139 | half-life [5]: > 60 min
CC(=O)O[C@H]1C[C@H]2[C@@H]([C@H](OC(C)=O)C[C@@H]3C[C@H](N(C)C)CC[C@@]32C)[C@@H]2CC[C@H]([C@H](C)CCCNCCNc3ccnc4cc(Cl)ccc34)[C@@]12C [Compound 50, 24-N-[(7-Chloroquinoline-4-yl)amino]ethylamino-3α-N′,N′-dimethylamino-7α,12α-diacetoxy-5β-cholane] | 714/333/435 | 714/333/435 | 714/333/435 | HLM stability (t1/2) [6]: 60/60 min; MLM stability (t1/2) [7]: 60/60 min
CC(=O)O[C@H]1C[C@H]2[C@@H]([C@H](OC(C)=O)C[C@@H]3C[C@H](N)CC[C@@]32C)[C@@H]2CC[C@H]([C@H](C)CCCN(C)CCNc3ccnc4cc(Cl)ccc34)[C@@]12C [Compound 54, 24-N-Methyl-N-[(7-chloroquinoline-4-yl)amino]ethylamino-3α-amino-7α,12α-diacetoxy-5β-cholane] | 4993/3995/2327 | 4993/3995/2327 | 4993/3995/2327 | HLM stability (t1/2) [6]: 60/60 min; protection/cure of mice [8]: failed to protect/cure mice; day postinfection on which mice died ([8]; po): 13; signs of compound toxicity upon necropsy ([8]; po): no signs of tissue damage caused by compound toxicity; MLM stability (t1/2) [7]: 60/60 min
CC(=O)O[C@H]1C[C@H]2[C@@H]([C@H](OC(C)=O)C[C@@H]3C[C@H](N(C)C)CC[C@@]32C)[C@@H]2CC[C@H]([C@H](C)CCCN(C)CCNc3ccnc4cc(Cl)ccc34)[C@@]12C [Compound 56, 24-N-Methyl-N-[(7-chloroquinoline-4-yl)amino]ethylamino-3α-N′,N′-dimethylamino-7α,12α-diacetoxy-5β-cholane] | 6824/3920/3176 | 6824/3920/3176 | 6824/3920/3176 | half-life [5]: > 60 min
CC(=O)O[C@H]1C[C@H]2[C@@H]([C@H](OC(C)=O)C[C@@H]3C[C@H](N(C)C)CC[C@@]32C)[C@@H]2CC[C@H]([C@H](C)CCCN(C)CCCNc3ccnc4cc(Cl)ccc34)[C@@]12C [Compound 57] | 93/35/71 | 93/35/71 | 93/35/71 | HLM stability (t1/2) [6]: 60/60 min; MLM stability (t1/2) [7]: 60/60 min
CC(=O)O[C@H]1C[C@H]2[C@@H]([C@H](OC(C)=O)C[C@@H]3C[C@H](NC(=O)OC(C)(C)C)CC[C@@]32C)[C@@H]2CC[C@H]([C@H](C)CCCN(CCCNc3ccnc4cc(Cl)ccc34)CCC[C@@H](C)[C@H]3CC[C@H]4[C@@H]5[C@H](OC(C)=O)C[C@@H]6C[C@H](NC(=O)OC(C)(C)C)CC[C@]6(C)[C@H]5C[C@H](OC(C)=O)[C@]34C)[C@@]12C [Compound 59, N,N-Di(3α-amino-tert-butylcarbamate-7α,12α-diacetoxy-5β-cholan-24-yl)-N′-(7′-chloroquinoline-4′-yl)-1,3-propanediamine] | 96/96/96 | 96/96/96 | 96/96/96 | inhibition at 20 µM ([9]; at 20 μM): 6%
CC(=O)O[C@H]1C[C@H]2[C@@H]([C@H](OC(C)=O)C[C@@H]3C[C@H](N)CC[C@@]32C)[C@@H]2CC[C@H]([C@H](C)CCCN(CCCNc3ccnc4cc(Cl)ccc34)CCC[C@@H](C)[C@H]3CC[C@H]4[C@@H]5[C@H](OC(C)=O)C[C@@H]6C[C@H](N)CC[C@]6(C)[C@H]5C[C@H](OC(C)=O)[C@]34C)[C@@]12C [Compound 61] | 10/9/7 | 10/9/7 | 10/9/7 | –
N=C(N)c1ccc(Oc2ccc(-c3cc4ccc(C(=N)N)cc4[nH]3)cc2)cc1 [NSC 240898, reference compound] | – | – | – | inhibition at 20 µM [9]: 73.3%
